Test results from PubChem BioAssay AID1919007 (Molecular Pharmacology Branch, DTP, NCI, 2023).

Test system: A498 complex spheroids with HUVEC/MSC, growth
Experiment: Anticancer human tumor A498 cell line growth inhibition [AhR];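 also: seven day exposure starting three days after spheroid seeding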;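 as to viability, T/C: luminescence signal used as a surrogate for viable cells; luminescence viability scaled so 100% equals DMSO vehicle wells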
Conditions: for IC50: curve of first compound; for viability, T/C: stronger effect = lower value
Summary of the method: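 Agents were dosed in half-log steps down from roughly clinical Cmax, or from 10 microM where Cmax was unknown, alone and with AhR antagonists. Read-out: percent test/control growth of tumor spheroids containing HUVEC and MSC stromal cells.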

[1] = second compound 0.1 µM, first compound 0.0316 µM
[2] = second compound 0.1 µM, first compound 0.1 µM
[3] = second compound 0.1 µM, first compound 0.316 µM
[4] = second compound 0.1 µM, first compound 1 µM
[5] = second compound 0.1 µM, first compound 3.16 µM
[6] = second compound 0.1 µM, first compound 10 µM
[7] = second compound 0.316 µM, first compound 0.0316 µM
[8] = second compound 0.316 µM, first compound 0.1 µM
[9] = second compound 0.316 µM, first compound 0.316 µM
[10] = second compound 0.316 µM, first compound 1 µM
[11] = second compound 0.316 µM, first compound 3.16 µM
[12] = second compound 0.316 µM, first compound 10 µM
[13] = second compound 1 µM, first compound 0.0316 µM
[14] = second compound 1 µM, first compound 0.1 µM
[15] = second compound 1 µM, first compound 0.316 µM
[16] = second compound 1 µM, first compound 1 µM
[17] = second compound 1 µM, first compound 3.16 µM
[18] = second compound 1 µM, first compound 10 µM
[19] = second compound 3.16 µM, first compound 0.0316 µM
[20] = second compound 3.16 µM, first compound 0.1 µM
[21] = second compound 3.16 µM, first compound 0.316 µM
[22] = second compound 3.16 µM, first compound 1 µM
[23] = second compound 3.16 µM, first compound 3.16 µM
[24] = second compound 3.16 µM, first compound 10 µM
[25] = second compound 10 µM, first compound 0.0316 µM
[26] = second compound 10 µM, first compound 0.1 µM
[27] = second compound 10 µM, first compound 0.316 µM
[28] = second compound 10 µM, first compound 1 µM
[29] = second compound 10 µM, first compound 3.16 µM
[30] = second compound 10 µM, first compound 10 µM

COc1cccc2c1C(=O)c1c(O)c3c(c(O)c1C2=O)CC(O)(C(=O)CO)CC3OC1CC(N)C(O)C(C)O1 (stereo not given) + Cc1ccccc1N=Nc1ccc(NC(=O)c2ccnn2C)c(C)c1
IC50 (second compound 0.1 µM): 290 nM | IC50 (second compound 0.316 µM): 397 nM | IC50 (second compound 1 µM): 369 nM | IC50 (second compound 3.16 µM): 397 nM | IC50 (second compound 10 µM): 400 nM | viability, T/C [1]: 61.7% | viability, T/C [2]: 52.4% | viability, T/C [3]: 49.6% | viability, T/C [4]: 23.8% | viability, T/C [5]: 1.17% | viability, T/C [6]: 0.89% | viability, T/C [7]: 65.6% | viability, T/C [8]: 61.6% | viability, T/C [9]: 55.7% | viability, T/C [10]: 25.5% | viability, T/C [11]: 1.09% | viability, T/C [12]: 1.35% | viability, T/C [13]: 58.6% | viability, T/C [14]: 60.4% | viability, T/C [15]: 52.9% | viability, T/C [16]: 25.7% | viability, T/C [17]: 1.54% | viability, T/C [18]: 0.92% | viability, T/C [19]: 59.9% | viability, T/C [20]: 62.6% | viability, T/C [21]: 52.9% | viability, T/C [22]: 30.6% | viability, T/C [23]: 2.05% | viability, T/C [24]: 0.61% | viability, T/C [25]: 61.7% | viability, T/C [26]: 57.5% | viability, T/C [27]: 55.4% | viability, T/C [28]: 27% | viability, T/C [29]: 1.19% | viability, T/C [30]: 1.56%

COc1ccc([C@@H](O)c2cc(-c3ncnc4cc(N5CCOCC5)ccc34)c(F)cc2Cl)nn1 + Cc1ccccc1N=Nc1ccc(NC(=O)c2ccnn2C)c(C)c1
IC50 (second compound 0.1 µM): 252 nM | IC50 (second compound 0.316 µM): 562 nM | IC50 (second compound 1 µM): 650 nM | IC50 (second compound 3.16 µM): 666 nM | IC50 (second compound 10 µM): 630 nM | viability, T/C [1]: 85.8% | viability, T/C [2]: 58% | viability, T/C [3]: 40.8% | viability, T/C [4]: 42.9% | viability, T/C [5]: 18.1% | viability, T/C [6]: 9.01% | viability, T/C [7]: 71.1% | viability, T/C [8]: 90.5% | viability, T/C [9]: 54.8% | viability, T/C [10]: 41.5% | viability, T/C [11]: 11.4% | viability, T/C [12]: 9.4% | viability, T/C [13]: 85.7% | viability, T/C [14]: 84% | viability, T/C [15]: 81.2% | viability, T/C [16]: 31.4% | viability, T/C [17]: 10.2% | viability, T/C [18]: 6.98% | viability, T/C [19]: 91.9% | viability, T/C [20]: 92.9% | viability, T/C [21]: 71.1% | viability, T/C [22]: 38.5% | viability, T/C [23]: 12.6% | viability, T/C [24]: 6.52% | viability, T/C [25]: 83.4% | viability, T/C [26]: 83.2% | viability, T/C [27]: 67.2% | viability, T/C [28]: 37.5% | viability, T/C [29]: 17.5% | viability, T/C [30]: 7.07%

Nc1ccccc1NC(=O)c1ccc(CNC(=O)OCc2cccnc2)cc1 + Cc1cncc(-c2nc(NCCc3c[nH]c4ccccc34)c3ncn(C(C)C)c3n2)c1
IC50 (second compound 0.1 µM): 1220 nM | IC50 (second compound 0.316 µM): 1260 nM | IC50 (second compound 1 µM): 1150 nM | IC50 (second compound 3.16 µM): 221 nM | IC50 (second compound 10 µM): < 31.6 nM | viability, T/C [1]: 82.6% | viability, T/C [2]: 79.7% | viability, T/C [3]: 70.5% | viability, T/C [4]: 57.8% | viability, T/C [5]: 23% | viability, T/C [6]: 2.08% | viability, T/C [7]: 83.6% | viability, T/C [8]: 84% | viability, T/C [9]: 84% | viability, T/C [10]: 53.7% | viability, T/C [11]: 24% | viability, T/C [12]: 1.77% | viability, T/C [13]: 83.8% | viability, T/C [14]: 78.5% | viability, T/C [15]: 72.8% | viability, T/C [16]: 56.1% | viability, T/C [17]: 18.1% | viability, T/C [18]: 2.18% | viability, T/C [19]: 50.4% | viability, T/C [20]: 49.9% | viability, T/C [21]: 51.5% | viability, T/C [22]: 41.2% | viability, T/C [23]: 16.9% | viability, T/C [24]: 1.1% | viability, T/C [25]: 3.86% | viability, T/C [26]: 3.69% | viability, T/C [27]: 2.11% | viability, T/C [28]: 1.29% | viability, T/C [29]: 0.5% | viability, T/C [30]: 0.86%

Nc1ccn(C2OC(CO)C(O)C2(F)F)c(=O)n1 (stereo not given) + Cc1cncc(-c2nc(NCCc3c[nH]c4ccccc34)c3ncn(C(C)C)c3n2)c1
IC50 (second compound 0.1 µM): < 31.6 nM | IC50 (second compound 0.316 µM): < 31.6 nM | IC50 (second compound 1 µM): < 31.6 nM | IC50 (second compound 3.16 µM): < 31.6 nM | IC50 (second compound 10 µM): < 31.6 nM | viability, T/C [1]: 26.9% | viability, T/C [2]: 33.5% | viability, T/C [3]: 41.7% | viability, T/C [4]: 41.2% | viability, T/C [5]: 36.5% | viability, T/C [6]: 39.1% | viability, T/C [7]: 29% | viability, T/C [8]: 32% | viability, T/C [9]: 42.7% | viability, T/C [10]: 43.7% | viability, T/C [11]: 41.9% | viability, T/C [12]: 39.9% | viability, T/C [13]: 32.7% | viability, T/C [14]: 26.5% | viability, T/C [15]: 39.7% | viability, T/C [16]: 42.2% | viability, T/C [17]: 39.5% | viability, T/C [18]: 34% | viability, T/C [19]: 45.1% | viability, T/C [20]: 27.8% | viability, T/C [21]: 28.7% | viability, T/C [22]: 30.5% | viability, T/C [23]: 28.8% | viability, T/C [24]: 33% | viability, T/C [25]: 4.54% | viability, T/C [26]: 4.79% | viability, T/C [27]: 5.17% | viability, T/C [28]: 3.59% | viability, T/C [29]: 3.85% | viability, T/C [30]: 5.49%

CC(C)c1c(-c2ccccc2)nc2c(C#N)c[nH]n2c1=O + CC(CO)NC(=O)c1cc(-c2ccc(Cl)cc2)nn(-c2cnn(C)c2)c1=O
IC50 (second compound 0.1 µM): > 10000 nM | IC50 (second compound 0.316 µM): > 10000 nM | IC50 (second compound 1 µM): > 10000 nM | IC50 (second compound 3.16 µM): > 10000 nM | IC50 (second compound 10 µM): > 10000 nM | viability, T/C [1]: 94.6% | viability, T/C [2]: 93.3% | viability, T/C [3]: 93.3% | viability, T/C [4]: 96.4% | viability, T/C [5]: 101% | viability, T/C [6]: 103% | viability, T/C [7]: 91.9% | viability, T/C [8]: 90.5% | viability, T/C [9]: 94.6% | viability, T/C [10]: 83.1% | viability, T/C [11]: 87.3% | viability, T/C [12]: 88.5% | viability, T/C [13]: 85.8% | viability, T/C [14]: 92.6% | viability, T/C [15]: 90.7% | viability, T/C [16]: 76.5% | viability, T/C [17]: 87.1% | viability, T/C [18]: 90.7% | viability, T/C [19]: 81.5% | viability, T/C [20]: 86.1% | viability, T/C [21]: 96.2% | viability, T/C [22]: 75.3% | viability, T/C [23]: 75.9% | viability, T/C [24]: 81.5% | viability, T/C [25]: 61.8% | viability, T/C [26]: 63.3% | viability, T/C [27]: 70.5% | viability, T/C [28]: 58.9% | viability, T/C [29]: 64% | viability, T/C [30]: 72.2%
